In the supplement of paper PMC10307832:

What was measured:
Assay in all cases: relative viability (nuclei count vs DMSO), 5 days (fraction); higher = more cells survive
GSK-J4 + Foretinib = compound: CCOC(=O)CCNc1cc(N2CCc3ccccc3CC2)nc(-c2ccccn2)n1 [GSK-J4] + COc1cc2c(Oc3ccc(NC(=O)C4(C(=O)Nc5ccc(F)cc5)CC4)cc3F)ccnc2cc1OCCCN1CCOCC1 [Foretinib] (partner 0.25 µM)
Outline: (§1)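 Each reported value is a median over duplicate plates. It expresses relative viability: treated-well nuclei count divided by vehicle-well nuclei count. Lung cancer cell lines in 1536-well plates were dosed by pin tool a day after seeding, alone with one drug or with a fixed anchor-drug dose plus five library-drug doses (not always all listed) in √10 steps, and nuclei were counted after 5 days.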

GSK-J4 + Lapatinib = compound: CCOC(=O)CCNc1cc(N2CCc3ccccc3CC2)nc(-c2ccccn2)n1 [GSK-J4] + CS(=O)(=O)CCNCc1ccc(-c2ccc3ncnc(Nc4ccc(OCc5cccc(F)c5)c(Cl)c4)c3c2)o1 [Lapatinib] (partner 2 µM)
Outline: as §1

AZ3146 + Dasatinib = compound: CN1CCC(CC1)OC2=CC(=C(C=C2)NC3=NC=C4C(=N3)N(C(=O)N4C)C5CCCC5)OC [AZ3146] + Cc1nc(Nc2ncc(C(=O)Nc3c(C)cccc3Cl)s2)cc(N2CCN(CCO)CC2)n1 [Dasatinib] (partner 0.075 µM)
Outline: as §1

AZ3146 + Olaparib = compound: CN1CCC(CC1)OC2=CC(=C(C=C2)NC3=NC=C4C(=N3)N(C(=O)N4C)C5CCCC5)OC [AZ3146] + O=C(c1cc(Cc2n[nH]c(=O)c3ccccc23)ccc1F)N1CCN(C(=O)C2CC2)CC1 [Olaparib] (partner 8 µM)
Outline: as §1

UMC-11
relative viability (GSK-J4 + Foretinib; first compound 0.5 µM): 0.896 | relative viability (GSK-J4 + Foretinib; first compound 5 µM): 1.07 | relative viability (GSK-J4 + Foretinib; first compound 15.81 µM): 1.08 | relative viability (GSK-J4 + Foretinib; first compound 50 µM): 0.556 | relative viability (GSK-J4 + Lapatinib; first compound 0.5 µM): 1.07 | relative viability (GSK-J4 + Lapatinib; first compound 1.581 µM): 0.465 | relative viability (GSK-J4 + Lapatinib; first compound 5 µM): 0.611 | relative viability (GSK-J4 + Lapatinib; first compound 15.81 µM): 1.06 | relative viability (GSK-J4 + Lapatinib; first compound 50 µM): 0.808 | relative viability (AZ3146 + Dasatinib; first compound 0.08 µM): 0.426 | relative viability (AZ3146 + Dasatinib; first compound 0.253 µM): 0.562 | relative viability (AZ3146 + Dasatinib; first compound 0.8 µM): 0.463 | relative viability (AZ3146 + Dasatinib; first compound 2.53 µM): 0.452 | relative viability (AZ3146 + Dasatinib; first compound 8 µM): 0.257 | relative viability (AZ3146 + Olaparib; first compound 0.08 µM): 0.396 | relative viability (AZ3146 + Olaparib; first compound 0.253 µM): 0.405 | relative viability (AZ3146 + Olaparib; first compound 0.8 µM): 0.36 | relative viability (AZ3146 + Olaparib; first compound 2.53 µM): 0.326 | relative viability (AZ3146 + Olaparib; first compound 8 µM): 0.279
